# From patent US8119364B2, “Methods for generating analogs of coenzyme A” (The Regents of the University of California, priority 2005, dated 2012)
# Entries after “also recorded” stand apart in the source; their conditions may differ. Like-named read-outs stand apart in the source and are kept apart here.
# Key:
# E. coli PanK (CoAA) [1] = target: T1, E. coli PanK (CoAA) (Escherichia coli, UniProt P0A6I3); test: Kinetic assay of pantetheine analogs as substrates of PanK; assay type: biochemical; conditions: for Km / kcat: compound as substrate of E. coli PanK; for Km, fold lower: compared with pantothenate
# T1 sequence (P0A6I3 1-316): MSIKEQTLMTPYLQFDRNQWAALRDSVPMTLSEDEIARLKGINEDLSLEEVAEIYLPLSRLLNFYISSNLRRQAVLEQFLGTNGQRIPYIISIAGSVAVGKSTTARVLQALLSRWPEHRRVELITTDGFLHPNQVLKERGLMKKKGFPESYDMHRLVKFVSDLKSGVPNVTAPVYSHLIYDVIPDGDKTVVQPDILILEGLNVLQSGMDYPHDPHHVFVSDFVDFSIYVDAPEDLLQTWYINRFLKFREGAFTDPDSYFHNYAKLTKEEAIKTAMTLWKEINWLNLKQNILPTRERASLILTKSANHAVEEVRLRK
# Procedure: As mentioned earlier, phosphorylation of the primary hydroxyl group of pantothenate by the first protein in the CoA biosynthesis pathway, PanK, is believed to be the rate limiting step in vivo. Jackowski and Rock, J. Bacteria 148:926, 1981. Due to its role as the gatekeeper of CoA biosynthesis, each of the new analogs was assayed for kinetic activity with PanK (Table 2).
# The assay was performed as previously described using the prototypical bacterial PanK, CoAA from E. coli. Kumar and Aldrich, Org. Lett. 5:613, 2003. The reaction of CoAA with the natural substrate pantothenate gave values that conformed to those previously reported in the literature. Worthington and Burkart, Org. Biomol. Chem. 4:44, 2005; Strauss and Begley, J. Biol. Chem. 277:48205, 2002. […] Conversely, compounds with PEG linkers between the pantoic acid moiety and the bioorthogonal terminus were poor substrates for CoAA.
# [2] = tested on: E. coli overexpressing the carrier protein VibB and the PPTase Sfp; test: In vivo uptake: carrier protein labeling in E. coli; assay type: cell-based; conditions: 1 mM compound, 4 hours of growth, SDS-PAGE fluorescence or western blot
# Procedure: (§1) (a) Analogs were assayed for gel shift after reaction with CoA biosynthesis enzymes (CoAA/D/E), PPTase (Sfp) and carrier protein (E. coli ACP). Conversion of apo-ACP to reporter modified crypto-ACP causes a change in the mobility of the protein on native PAGE. (b) In vitro modification of the carrier protein VibB by reaction with fluorescent pantetheine analogs, CoA biosynthesis enzymes (CoAA/D/E) and Sfp. (c) In vivo modification of carrier protein by incubation of fluorescent pantetheine analogs with E. coli overexpressing VibB and the PPTase Sfp. (d) In vitro modification of VibB by reaction with bioorthogonal pantetheine analogs, CoA biosynthesis enzymes (CoAA/D/E) and Sfp. Labeled carrier protein is visualized by chemoselective ligation to the appropriate biotin reporter (9-11) followed by SDS-PAGE, blotting onto nitrocellulose, and incubation with streptavidin-linked alkaline phosphatase. (e) In vivo modification of carrier protein by incubation of bioorthogonal pantetheine analogs with E. coli overexpressing VibB and the PPTase Sfp. Visualization as in (d).
# (§2) The library of pantetheine analogs was tested for integration into the E. coli CoA pathway using an in vivo assay. Clarke et al., J. Am. Chem. Soc. 127:11234, 2005. E. coli overexpressing the carrier protein VibB and the PPTase Sfp were incubated with 1 mM of each compound in 1 ml of culture. After 4 hours of growth cells were pelleted, washed, and lysed. Lysate from these cultures was run on SDS-PAGE gels and detection carried out as described for the in vitro studies. […] To verify the results of the gels and blots, samples of crude lysate were assayed by MALDI-MS (FIG. 11). For MALDI-MS analysis doubly transformed E. coli containing plasmids for the carrier protein Fren and the PPTase Sfp were used.
# [3] = tested on: CoA biosynthesis enzymes (CoAA/D/E), PPTase (Sfp) and carrier protein (E. coli ACP); conditions: native PAGE
# Procedure: Virga et al., Bioorg. Med. Chem. 14:1007, 2006. […] Clarke et al., J. Am. Chem. Soc. 127:11234, 2005.
# as §1
# [4] = tested on: CoA biosynthetic enzymes (CoAA/D/E), PPTase Sfp and apo-ACP; conditions: MALDI-MS, in vitro
# Excerpt: To confirm the results from this assay, the reaction mixtures were subjected to matrix-assisted laser desorption/ionization mass spectrometry (MALDI-MS). […] Compound 13 was reacted with the CoAA biosynthesis enzymes, ACP, and Sfp as described above and the reaction mix analyzed by MALDI without further purification.
# Apo-ACP (a) is reacted with pantetheine analogs, CoA biosynthetic enzymes (CoAA/D/E) and the PPTase Sfp.
# [5] = tested on: E. coli containing plasmids for the carrier protein Fren and the PPTase Sfp; test: MALDI-MS of crude lysate after in vivo labeling; assay type: cell-based
# Procedure: as §2
# CoAA = CoAA (Escherichia coli, UniProt P0A6I3); conditions: pantothenate as substrate
# Excerpt: To isolate and investigate the effect of H-bond accepting heteroatoms in the linker region, pantetheine analogs 15 and 16 were synthesized. […] Virga et al., Bioorg. Med. Chem. 14:1007, 2006. […] To test if these compounds were acting as inhibitors of CoAA, a competitive kinetic assay was set up using pantotenate as the substrate. […] Ivey et al., J. Biol. Chem. 279:35622, 2004. Investigation of these compounds as potential inhibitor scaffolds is ongoing.
# E. coli PanK (CoAA) [6] = target: T1, E. coli PanK (CoAA); conditions: natural pantetheine, from reference 14, cited from earlier work
# [7] = compound 3 (β-Ala linkage) versus compound 1
SMILES,Km compared with natural substrate pantothenate (fold higher) (E. coli PanK (CoAA) [1]),turnover compared with the natural substrate (in words) (E. coli PanK (CoAA) [1]),Km (E. coli PanK (CoAA) [1]) [µM],kcat (E. coli PanK (CoAA) [1]) [s⁻¹],substrate suitability for CoAA/PanK (in words) (E. coli PanK (CoAA) [1]),modification of VibB in vivo (detectability) [2],further results
CC(C)(CO)[C@@H](O)C(=O)NCCN=[N+]=[N-] [Compound 1],20 fold,turnover within the range of the natural substrate,692 ± 89.1,0.3722 ± 0.0257,–,–,–
C#CCNC(=O)CCNC(=O)[C@H](O)C(C)(C)CO [Compound 2],–,–,32.9 ± 2.54,0.5242 ± 0.0125,kcat and Km values closely approaching those of the natural substrate,detectable modification of VibB in vivo; also recorded: biodetectible in E. coli,–
CC(C)(CO)[C@@H](O)C(=O)NCCC(=O)NCCN=[N+]=[N-] [Compound 3],–,–,43.5 ± 1.99,0.46695 ± 0.007,kcat and Km values closely approaching those of the natural substrate,detectable modification of VibB in vivo; also recorded: biodetectible in E. coli,increase in Km (E. coli PanK (CoAA) [1]; [7]): 10 fold; increase in catalytic efficiency (E. coli PanK (CoAA) [1]; [7]): ~20 fold
CC(=O)CCC(=O)NCCNC(=O)CCNC(=O)[C@H](O)C(C)(C)CO [Compound 4],two fold higher,near equal,62.6 ± 3.89,0.344 ± 0.0075,–,"detectable, but showed much weaker labeling; also recorded: biodetectible in E. coli",–
CC(C)(CO)[C@@H](O)C(=O)NCCC(=O)NCCNC(=O)CCN=[N+]=[N-] [Compound 5],two fold higher,exceeding,71.9 ± 6.98,0.6818 ± 0.0187,processed particularly efficiently by PanK,detectable modification of VibB in vivo; also recorded: biodetectible in E. coli,–
CC(=O)CCC(=O)NCCOCCOCCNC(=O)[C@H](O)C(C)(C)CO [Compound 6],–,–,0.196 ± 0.09,0.0267 ± 0.001,markedly decreased kinetic activity,–,–
CC(C)(CO)[C@@H](O)C(=O)NCCOCCOCCNC(=O)CCN=[N+]=[N-] [Compound 7],two-fold higher,–,53.8 ± 11.2,0.103 ± 0.00733,viable substrates,–,–
CC(C)(CO)[C@@H](O)C(=O)NCCOCCOCCOCCOCCOCCOCCOCCOCCOCCOCCN=[N+]=[N-] [Compound 8],–,–,–,–,such poor substrates that kinetic data could not be generated,–,change in mobility / conversion of apo-ACP to crypto-ACP [3]: multiple bands on the gel that suggest apo-protein remains; conversion to CoA analog and transfer onto carrier protein ACP [4]: significantly incomplete
CN(C)c1ccc2c(CC(=O)NCCNC(=O)[C@H](O)C(C)(C)CO)cc(=O)oc2c1 [Compound 12],–,–,37.2 ± 5.82,0.1927 ± 0.0095,lower turnover and catalytic efficiency than analogs containing the natural β-Ala/pantoic acid linkage; also recorded: good binding but slow turnover,detectable modification of VibB in vivo; also recorded: biodetectible in E. coli,–
CN(C)c1ccc2c(CC(=O)NCCCCCCNC(=O)CCNC(=O)[C@H](O)C(C)(C)CO)cc(=O)oc2c1 [Compound 13],the same as,near equal,28.4 ± 6.92,0.3193 ± 0.0235,processed particularly efficiently by PanK,detectable modification of VibB in vivo; also recorded: biodetectible in E. coli,"in vivo uptake and attachment onto Fren [5]: taken up by the cell, processed into a CoA analog and attached onto Fren; conversion to CoA analog and transfer onto carrier protein ACP [4]: converted to CoA analogs and modify ACP"
CN(C)c1cccc2c(S(=O)(=O)NCCNC(=O)CCNC(=O)[C@H](O)C(C)(C)CO)cccc12 [Compound 14],the same as,near equal,27.3 ± 3.28,0.2877 ± 0.0103,processed particularly efficiently by PanK,–,–
CN(C)c1ccc2c(CC(=O)NCCCOCCNC(=O)[C@H](O)C(C)(C)CO)cc(=O)oc2c1 [Compound 15],–,–,0.76 ± 0.32,0.0227 ± 0.00083,extremely poor substrates; also recorded: losing almost all substrate activity,–,"Km, fold lower (E. coli PanK (CoAA) [1]): 100 fold; mode of inhibition of CoAA (CoAA): non-competitive inhibitor"
CN(C)c1ccc2c(CC(=O)NCCOCCCNC(=O)[C@H](O)C(C)(C)CO)cc(=O)oc2c1 [Compound 16],–,–,0.14 ± 0.18,0.0167 ± 0.0005,extremely poor substrates; also recorded: losing almost all substrate activity,–,"Km, fold lower (E. coli PanK (CoAA) [1]): 100 fold"
CN(C)c1ccc2c(CC(=O)NCCOCCOCCNC(=O)[C@H](O)C(C)(C)CO)cc(=O)oc2c1 [Compound 17],two-fold higher,–,51.2 ± 6.42,0.1677 ± 0.00717,viable substrates,–,conversion to CoA analog and transfer onto carrier protein ACP [4]: converted to CoA analogs and modify ACP
CN(C)c1ccc2c(CC(=O)NCCOCCOCCOCCOCCOCCOCCOCCOCCOCCOCCNC(=O)[C@H](O)C(C)(C)CO)cc(=O)oc2c1 [Compound 18],–,–,–,–,such poor substrates that kinetic data could not be generated,–,change in mobility / conversion of apo-ACP to crypto-ACP [3]: multiple bands on the gel that suggest apo-protein remains
CC(C)(CO)[C@@H](O)C(=O)NCCC(=O)NCCS [Pantetheine],–,–,–,–,–,–,Km (E. coli PanK (CoAA) [6]): 91 ± 10 µM; kcat (E. coli PanK (CoAA) [6]): 0.32 ± 0.0017 s⁻¹; kcat (E. coli PanK (CoAA) [6]; listed as pantetheine): 0.525 s⁻¹
